Reference: US20040170622A1, “Methods and compositions for modulating XBP-1 activity” (President and Fellows of Harvard College, priority 2002, published 2004)
“Also recorded” adds a separate entry of the source. Where a SMILES comes first, the peptide text is derived from it. The star is where a group is joined. Cbz = O=C(OCc1ccccc1)*

B1: dn-XBP: dominant negative XBP-1 containing the N-terminal 188 aa, lacking transactivation domain, retaining leucine zipper (protein)
chain: MVVVAAAPSAATAAPKVLLLSGQPASGGRALPLMVPGPRAAGSEASGTPQARKRQRLTHLSPEEKALRRKLKNRVAAQTARDRKKARMSELEQQVVDLEEENHKLQLENQLLREKTHGLVVENQELRTRLGMDTLDPDEVPEVEAKGSGVRLVAGSAESAAGAGPVVTSPEHLPMDSDTVASSDSESD

Key:
Format in all cases: cell-based
[1] = test system: BiP and CHOP; test: UPR target gene expression in NIH3T3 and J558 myeloma cells (Northern blot); settings: for induction of UPR target genes (BiP, CHOP), agent alone: MG-132 20 μM, Tm 10 μg/ml
Method: (§1) (A) BiP and CHOP induction was examined by northern blot analysis after treating NIH3T3 or J558 myeloma cells with either MG-132 (20 μM), Tm (10 μg/ml) or both. Cells were pretreated with MG-132 for 1 hr and then further treated with Tm for 4 hrs. Ethidium bromide staining of the gel is shown at the bottom. (B) Inhibition of caspase-12 processing by proteasome inhibitors. Processing of full-length caspase-12 was examined by Western blotting in J558 myeloma cells treated with thapsigargin (1 μM) or PIs (20 μM) during the indicated time periods. (C) Alteration in the ratio of XBP-1 protein species in J558 cells were treated with increasing amounts of MG-132 for 16 hrs. Cells undergoing apoptosis were counted by Annexin V staining. (D) Time course of the XBP-1s to XBP-1u shift. Cells were treated with MG-132 (1 μM) for the indicated times and XBP-1u and spliced protein levels and cell death determined. (E) Alteration in the ratio of XBP-1 species in the MM.1s human myeloma line. Cells were treated with PS-341 (8 nM) in a time course analysis and XBP-1 protein species quantified.
(§2) Total RNA was prepared by using Trizol reagent, electrophoresed on 1.2% agarose, 6% formaldehyde gels and then transferred onto Genescreen Plus membrane, (NEN, Boston, Mass.). […] Probes for ERdj4 and p58^IPK were generated from cDNA excised from EST clones (ATCC, Manassas, Va.) using appropriate restriction enzymes (ERdj4, IMAGE: 1920927; p58^IPK, IMAGE:2646147).
The maturation and folding of ER membrane and secretory proteins relies on the activity of ER-resident chaperones and folding enzymes. ER proteins that ultimately fail to fold properly are degraded by the 26S proteasome, or ERAD. […] To test the effect of proteasome dysfunction on UPR activation, NIH3T3 fibroblasts (left panel) and J558 myeloma cells (right panel) were treated with the proteasome inhibitor (PI) MG-132 in the presence or absence of the ER stress inducer, tunicamycin (Tm), and the expression of UPR target genes assessed (FIG. 10a).

[2] = test system: J558 myeloma cells; test: Apoptosis of J558 myeloma cells (Annexin V staining); settings: for apoptosis, combination of Tm and MG-132: J558, 18 hrs, suboptimal concentrations
Method: as §1
(A) Synergistic effect of Tm and MG-132 on apoptosis. Annexin V positive cells were counted after treating J558 cells for 18 hrs with suboptimal concentrations of Tm and MG-132 as indicated. (B) J558-iXBP cells were generated by retroviral transduction of J558 cells with the U6 promoter based XBP-1 RNAi vector. (C) XBP-1 dependent gene expression in J558 cells that express control GFP, dn-XBP or iXBP-1 treated with Tm. Generation of dn-XBP-1 J558 cells by infection with a retrovirus containing dn-XBP cDNA inserted into the GFP-RV vector (N. N. lwakoshi et al., Nature Immunology 4, 321-329 (2003)). ERdj4, p58^IPK, BiP and CHOP gene expression were examined by Northern blot analysis. (D) Increased apoptosis in iXBP-1 and dn-XBP-1 expressing J558 cells. Cells were treated with the indicated amounts of Tm for 48 hrs and dead cells counted after Annexin V staining.
Cells were stained with annexin V-PE (BD PharMingen, San Jose, Calif.) as recommended and analyzed on a FACScan flow cytometer (Becton Dickinson, San Jose, Calif.).

[3] = test system: IRE1α-mediated XBP-1 mRNA splicing; test: XBP-1 mRNA level and splicing in J558 cells (Northern blot, RT-PCR); settings: for XBP-1 mRNA splicing, agent alone (RT-PCR) / overall levels of XBP-1 RNA (Northern blot): J558 cells
Method: (§3) (A) XBP-1 mRNA levels in ER stressed J558 cells treated with Tm for 4 hrs in the absence or presence of MG-132. Cells were pretreated with MG-132 for 1 hr before adding Tm. XBP-1 mRNA levels were determined by Northern blot analysis. […] (C) Effect of a panel of PIs on XBP-1 splicing. Cells were treated with Tm for 4 hrs in the absence or presence of MG-132 (10 μM), PS-341 (10 μM), Lactacystin (10 μM), ZL3VS (50 μM) or AdaAhxL3VS (50 μM), and XBP-1 mRNA splicing measured by RT-PCR analysis. (D) IRE-1α phosphorylation in NIH3T3 cells were treated with Tm as indicated after 2 hrs of pretreatment with MG-132 (10 μM).
as §2

[4] = test system: IRE1α; test: IRE1α phosphorylation in NIH3T3 cells (Western blot)
Method: as §3
Cells were lysed in RIPA buffer (50 mM Tris pH 7.4, 150 mM NaCl, 1 mM EDTA, 1% Triton X-100, 1% sodium deoxycholate, 0.1% SDS) and lysates subjected to SDS-PAGE and transferred to Hybond P membrane (Amersham-Pharmacia, Piscataway, N.J.). […] HeLa cells were cotransfected with XBP-1u and His-tagged ubiquitin expression plasmids (pMT 107, D. Bohmann, EMBL, Germany) by using the Lipofectamine-2000 reagent (Invitrogen, Carlsbad, Calif.). […] Degradation rates of XBP-1u and XBP-1s proteins were determined by pulse labeling J558 cells with ^35S Met/Cys for 1 hr and chasing for the indicated times.

[5] = test system: PERK; test: PERK autophosphorylation in J558 cells

| Molecule | induction of UPR target genes (BiP, CHOP), agent alone [1] | effect on Tm-induced stress response ([1]; MG-132 pretreatment 1 hr, then Tm 4 hrs, NIH3T3 and J558) | apoptosis, combination of Tm and MG-132 [2] | apoptosis in J558 cells ([2]; agent alone) | effect on Tm-induced XBP-1 mRNA splicing ([3]; J558, Tm 4 hrs, MG-132 10 μM, PS-341 10 μM, ZL3VS 50 μM, AdaAhxL3VS 50 μM) | XBP-1 mRNA splicing, agent alone (RT-PCR) [3] | overall levels of XBP-1 RNA (Northern blot) [3] | effect on Tm-induced IRE1α phosphorylation ([4]; 2 hrs pretreatment with MG-132 10 μM) | effect on Tm-induced autophosphorylation of PERK [5] | IRE1α phosphorylation ([4]; Tm-treated vs untreated cells) | amount of phosphorylated PERK [5] | apoptosis upon Tm treatment compared to control GFP-transduced cells ([2]; transduced J558 cells, Tm 48 hrs) | cell proliferation or viability at baseline ([2]; transduced J558 cells, no Tm) |
| --- | --- | --- | --- | --- | --- | --- | --- | --- | --- | --- | --- | --- | --- |
| CC(C)C[C@@H](C=O)NC(=O)[C@H](CC(C)C)NC(=O)[C@H](CC(C)C)NC(=O)OCc1ccccc1 [MG-132] (Cbz-Leu-Leu-Leu-aldehyde) | also induced the UPR | blocked rather than further augmented the Tm-induced stress response | synergistically induced apoptosis | induced apoptosis in J558 cells | suppressed by MG-132 in a dose dependent manner | did not induce any XBP-1mRNA splicing | not significantly altered | completely blocked the phosphorylation of IRE1α by Tm | a decrease in the autophosphorylation of PERK; also recorded: very marked decrease in the autophosphorylation of PERK |  |  |  |  |
| tunicamycin [Tm] | induction of expression of representative UPR target genes such as BiP (Grp78) and CHOP |  | synergistically induced apoptosis |  |  | markedly induced XBP-1 mRNA splicing | not significantly altered |  |  | increase in the phosphorylated (slower mobility) and decrease in unphosphorylated IRE1α species | led to an increase in the amount of phosphorylated PERK |  |  |
| B1 |  |  |  |  |  |  |  |  |  |  |  | significantly increased apoptosis | No effect on cell proliferation or viability |
